Measured values: patent publication US20040171824A1, “A Lac operator-repressor system” (priority 2001, published 2004)

Columns and labels:
[1] = tested on: tyrosinase expression in Tyr^lacO, LacI double transgenic embryos and pups; assay: Transplacental IPTG regulation and reversibility of pigmentation in embryonic and newborn double transgenic mice; assay type: in vivo, mouse
Text: To determine if lac elements could regulate pigmentation during embryogenesis and if IPTG could act transplacentally, the pigmentation in the developing retinal pigment epithelium of embryonic and newborn mice was investigated. At E9, tyrosinase activity in the embryonic eye of wild type mice begins to deposit pigment in the developing retinal pigment epithelium. At E12.5, the mouse RPE clearly is pigmented. Tyr^lacO (43) transgenic mice recapitulate this developmental event. A distinct band of pigmentation surrounding the central lens is seen in the Tyrosinase transgenic embryo that is not seen in the nontransgenic albino.
Finally, the reversibility of the system was tested by switching the Tyrosinase transgene on after it had been off, or off after it had been on, in the same animal. The phenotypes of eyes of newborn mice were compared to the phenotypes of embryonic eyes of mice of the same genotype. […] However, at E12.5, this double transgenic pup has the albino phenotype. […] Reversibility was also observed with regards to switching off the tyrosinase gene after it had intially been on. […] As expected, the eyes remain pigmented due to the low turnover of cells and melanosomes in the RPE.
For embryonic eyes, pregnant females were euthanized at E12.5, and the embryos removed. The head of each embryo was fixed in 2% paraformaldehyde in 0.1 M phosphate (pH 7.4), and the lower half was taken for genotyping. Tyrosinase activity was derepressed by replacing the drinking water with a 10 mM solution of IPTG (changed every four days). To allow for the normal pattern of tyrosinase expression during development, the female was started on 10 mM IPTG at day 7 of pregnancy.

[2] = tested on: tyrosinase expression in Tyr^lacO, LacI double transgenic mice; assay: IPTG derepression of tyrosinase expression (pigmentation) in Tyr^lacO, LacI double transgenic mice; assay type: in vivo, mouse
Experimental: The lac operator-repressor system of the present invention was tested in mice using a regulatable version of a well-characterized visible marker gene, tyrosinase. Tyrosinase is the protein product of the albino (c) locus (Kwon et al., PNAS 84, 7473-7477 (1987)), and is the enzyme that catalyzes the first step in melanin biosynthesis. The target transgene consists of the wildtype murine tyrosinase cDNA under the control of the murine tyrosinase promoter modified to contain lac operator sequences (See FIG. 2). The major transcription start site in the tyrosinase promoter is 83 bp upstream of the start codon. To maintain the endogenous spacing of promoter elements in the critical region between the start of transcription and the start of translation, a PCR-based, site-directed mutagenesis was used to change 25 bp of the endogenous sequence to create a primary lac operator centered at 59 bp upstream of the start of translation. Additional operators were inserted 176 bp and 526 bp upstream of the primary operator (FIG. 2). Mice containing this modified Tyrosinase transgene resemble pigmented animals previously described (Methot et al., nucleic Acids Research, 23, 4551-4556 (1995)) that had been microinjected with an unregulatable version of the same transgene. Two lines of pigmented Tyrosinase transgenic mice were established containing the regulatable transgene. […]

[3] = cited from earlier work
[4] = tested on: mouse L-cells stably transfected with lacI expression vector; conditions: MSV-CAT reporter with lac operators; cited from earlier work
[5] = Tolerability of IPTG in the drinking water of Tyr^lacO, LacI double-transgenic mice; assay type: in vivo, mouse
Experimental: Tyrosinase activity was derepressed by replacing the drinking water with a 10 mM solution of IPTG (changed every four days). To allow for the normal pattern of tyrosinase expression during development, the female was started on 10 mM IPTG at day 7 of pregnancy.

## CC(C)S[C@@H]1O[C@H](CO)[C@H](O)[C@H](O)[C@H]1O [IPTG, isopropyl-β-D-thiogalactoside]
[1]; double-transgenic embryo at E12.5, mother on 10 mM IPTG in drinking water during pregnancy
  pigmentation of the embryonic RPE: not when the mother was treated with IPTG during pregnancy
[1]; mother given IPTG in drinking water
  placental transfer: can cross the placenta
[1]; mother started on IPTG at E12.5 of pregnancy
  switching tyrosinase expression on after a period of silencing (eye pigmentation at birth): able to switch tyrosinase expression on
[1]; pup's mother taken off IPTG at P9
  coat phenotype after removal of IPTG: reversion of the coat phenotype to albino
[2]; double transgenic animal, 10 mM IPTG in the drinking water
  tyrosinase expression / coat phenotype: derepressed tyrosinase expression
[2]; double transgenic mouse treated with IPTG, eye sections
  pigmentation in the retinal pigment epithelium (RPE): restoration of pigmentation in the RPE to levels indistinguishable from the nonrepressed state
[3]; adult animal, spleen, liver, lung, kidney, brain, adipose tissue
  tissue distribution: widespread
[3]; average
  nuclear uptake of inducer, of the total cell uptake: 18%
[3]; in vivo
  clearance from the blood: rapidly cleared from the blood
  metabolism in the animal: not metabolized
  relative concentration of inducer to repressor molecules versus that required for maximal induction in E. coli: ~1000 fold
  time functionally active after introduction into the bloodstream: at least 4 hours
[3]; uptake by facilitated transport into tissues of the animal
  time to reach high levels in cells of tissues: 2 to 4 h
[4]
  CAT activity: marked de-repression of CAT activity
[5]; 10 mM IPTG in drinking water for up to 8 months
  deleterious effects on long-term administration: no deleterious effects
[5]; IPTG in the drinking water
  toxicity of the circulating level that derepresses target gene expression: completely nontoxic
